Measurements published in patent US7888357B2, “Anti-inflammatory and protein kinase inhibitor compositions and related methods for downregulation of detrimental cellular responses and inhibition of cell death” (Northwestern University, priority 2001, dated 2011).

Tests used:
[1] = tested on: BV-2 microglial cells; experiment: Cell-based screen for inhibition of LPS-stimulated NO release (Griess assay); set-up: species or system murine; settings: LPS-stimulated BV-2 cells, 24 hr, nitrite in conditioned media
Protocol: FIG. 1. Cell-based screen for inhibition of LPS-stimulated NO release. […] Inhibition is expressed as percent control, where the control is the NO accumulation from cells stimulated with LPS alone.
The rationale for using BV-2 cells in high throughput screening was the paucity of well-characterized human microglial cell lines, and the relevant activation responses and signaling pathways reflect those seen in human and rodent primary microglial cultures. Compounds were tested for their effects on NO accumulation in conditioned media of LPS-stimulated BV-2 cells by measurement of nitrite production by the Griess assay as a read-out for iNOS activity, as described previously. Stock solutions of compounds were prepared in dimethylsulfoxide (DMSO) or in water. When stock solutions were prepared in DMSO, control wells contained the same final concentration of DMSO as the compound-containing wells. […] Solutions of compounds for cell treatments were diluted to a 10× final concentration by dilution of stock solutions in αMEM media. The commercially available drugs tested were: compound 5 (KN93 from Alexis); compound 6 (pyrrolidinedithiocarbamate or PDTC from Sigma), compound 7 (SB203580 from Alexis Corporation), compound 8 (PD98059 from Alexis Corporation), and compound 9 (UO126 from Cell Signaling). […] Respectively, Western blots of cell lysates were done with the following antibodies: monoclonal anti-iNOS (1:1000 dilution, Transduction Labs); polyclonal anti-rat IL-1β (1:1000 dilution, R&D Systems, Inc.); monoclonal anti-glial fibrillary acidic protein (GFAP) (1:[…] dilution, Sigma); polyclonal anti-rat alioE (1:15,000 dilution) prepared as described; polyclonal anti-COX-2 (1:500 dilution) and monoclonal anti-phosphoATF2 (1:1000 dilution) from Santa Cruz Biotechnology, polyclonal anti-phosphoCREB (1:1000 dilution), and polyclonal anti-phosphop38 MAPK (1:1000 dilution). Reconstituted enzyme assays were done as described s. The sources of protein kinases were: bovine heart PKA from Promega, rat brain PKC from Calbiochem, rat CaMKII from New England Biolabs, chicken gizzard MLCK prepared as described, and a p38 MAP kinase kit containing recombinant Xenopus p38-MAPK and its human substrate from Upstate Biotechnology. The catalytic domains of these protein kinases retain a high level of amino acid sequence identity across mammalian species, consistent with the lack of documented major differences across species for the in vitro catalytic activity of a given kinase.
FIG. 4. Cell-based screen for functional effects of synthetic compounds on LPS-stimulated NO release from BV-2 cells. BV-2 cells were incubated for 24 hr with LPS (500 ng/ml) in the presence of increasing concentrations of: A) MW01-070C; B) MW01-026Z; C) MW01-118Z; D) MW01-119Z; E) MW01-051Z; F) MW01-160Z; G) MW01-196A; H) MW01-024Z; I) SB203580; J) PDTC; K) U0126; L) PD98059. The nitrite levels in conditioned media were determined. Inhibition is expressed as percentage of control values, where the control is the nitrite level in cells stimulated with LPS alone.
Compounds were tested for their effects on NO production by LPS-stimulated BV-2 cells as previously described [Mirzoeva, S., Koppal, T., Petrova, T. V., Lukas, T. J., Watterson, D. M., and Van Eldik, L. J. (1999) Brain Res. 844, 126-134]. The levels of nitrite, a stable NO metabolite, in conditioned media were determined by the Griess assay as previously described [Hu, J., Castets, F., Guevara, J. L., and Van Eldik, L. J. (1996) J. Biol. Chem. 271, 2543-2547]. Stock solutions of compounds were prepared in DMSO or in water. When stock solutions were prepared in DMSO, control wells contained the same final concentration of DMSO as the compound-containing wells. Solutions of compounds for cell treatments were diluted to a 10× final concentration by dilution of stock solutions of drugs in αMEM media.

[2] = biological target: T1, CaMKII (Rattus norvegicus, UniProt P11275); experiment: Reconstituted enzyme assay, CaMKII; type: biochemical; settings: Table 6; read-out: Inhibition CAMKII
T1 construct: purchased New England Biolabs
Protocol: (§1) [table] […] The rationale for using BV-2 cells in high throughput screening was the paucity of well-characterized human microglial cell lines, and the relevant activation responses and signaling pathways reflect those seen in human and rodent primary microglial cultures. Compounds were tested for their effects on NO accumulation in conditioned media of LPS-stimulated BV-2 cells by measurement of nitrite production by the Griess assay as a read-out for iNOS activity, as described previously. Stock solutions of compounds were prepared in dimethylsulfoxide (DMSO) or in water. When stock solutions were prepared in DMSO, control wells contained the same final concentration of DMSO as the compound-containing wells. […] Solutions of compounds for cell treatments were diluted to a 10× final concentration by dilution of stock solutions in αMEM media. […] Reconstituted enzyme assays were done as described s. The sources of protein kinases were: bovine heart PKA from Promega, rat brain PKC from Calbiochem, rat CaMKII from New England Biolabs, chicken gizzard MLCK prepared as described, and a p38 MAP kinase kit containing recombinant Xenopus p38-MAPK and its human substrate from Upstate Biotechnology. The catalytic domains of these protein kinases retain a high level of amino acid sequence identity across mammalian species, consistent with the lack of documented major differences across species for the in vitro catalytic activity of a given kinase.

[3] = biological target: T2, myosin light chain kinase (MLCK) (Gallus gallus, UniProt P11799); experiment: Reconstituted enzyme assay, MLCK; type: biochemical, chicken; settings: Table 6; read-out: Inhibition MLCK
T2 construct: chicken gizzard MLCK prepared as described; from tissue; host or cells: chicken gizzard
Protocol: as §1

[4] = biological target: death associated protein kinase (DAPK) (Homo sapiens, UniProt P53355); experiment: Enzyme assay, DAPK; type: biochemical; settings: Table 6; read-out: Inhibition DAPK
Protocol: Therefore, compound MW01-026Z was selected as a starting point for variations on component A (Table 6). […] However, none of the A variations appeared to improve the activity and selectivity profile of CompoundMW01-026Z. (For purposes of illustration, only, component G was maintained throughout as an acyl moiety, while component R2 was varied as shown. All such compositions are available using the synthetic techniques described herein. Enzyme assays were conducted per procedures described elsewhere herein.) A more comprehensive structure activity relationship is summarized in Table 7, below.
With reference to the compositions of Table 3 and the enzyme assay techniques described elsewhere herein, Table 7 provides structural activity relationships observed, in accordance with this invention.

[5] = tested on: rat astrocytes; experiment: Western blot of glial activation responses in rat astrocyte cultures; type: cell-based; settings: LPS-stimulated rat astrocytes, 24 hr, Western blot
Protocol: FIG. 2. Selective effects of compound 1 (MW01-070C) on glial activation responses and gene-regulating protein kinase pathways. BV-2 cells and rat astrocytes were treated with control buffer (C) or stimulated with LPS or Aβ1-42 peptide in the presence or absence of compound 1, and cell lysates were analyzed by Western blots. (A) Astrocytes treated with LPS and compound 1 show concentration-dependent inhibition of iNOS and IL-1β production but not GFAP. (B) Astrocytes treated with A β1-42 and compound 1 (10 μM) show inhibition of iNOS and IL-1β but not apoE and COX-2. (C) BV-2 cells treated with LPS and compound 1 (10 μM) show inhibition of phosphorylated (p-) CREB but not p-p38 and p-ATF2, as assayed with antibodies that are specific for the phosphorylated forms of the proteins. Data are expressed as percent control (mean±SD; n=3 determinations).
The rationale for using BV-2 cells in high throughput screening was the paucity of well-characterized human microglial cell lines, and the relevant activation responses and signaling pathways reflect those seen in human and rodent primary microglial cultures. Compounds were tested for their effects on NO accumulation in conditioned media of LPS-stimulated BV-2 cells by measurement of nitrite production by the Griess assay as a read-out for iNOS activity, as described previously. Stock solutions of compounds were prepared in dimethylsulfoxide (DMSO) or in water. When stock solutions were prepared in DMSO, control wells contained the same final concentration of DMSO as the compound-containing wells. […] Solutions of compounds for cell treatments were diluted to a 10× final concentration by dilution of stock solutions in αMEM media. The commercially available drugs tested were: compound 5 (KN93 from Alexis); compound 6 (pyrrolidinedithiocarbamate or PDTC from Sigma), compound 7 (SB203580 from Alexis Corporation), compound 8 (PD98059 from Alexis Corporation), and compound 9 (UO126 from Cell Signaling). SB203580, U0126 and PD98059, PDTC, and KN93 are used as pathway-selective inhibitors of p38 MAPK, MEK1/2, NFκB, and CaMKII signaling pathways. Respectively, Western blots of cell lysates were done with the following antibodies: monoclonal anti-iNOS (1:1000 dilution, Transduction Labs); polyclonal anti-rat IL-1β (1:1000 dilution, R&D Systems, Inc.); monoclonal anti-glial fibrillary acidic protein (GFAP) (1:[…] dilution, Sigma); polyclonal anti-rat alioE (1:15,000 dilution) prepared as described; polyclonal anti-COX-2 (1:500 dilution) and monoclonal anti-phosphoATF2 (1:1000 dilution) from Santa Cruz Biotechnology, polyclonal anti-phosphoCREB (1:1000 dilution), and polyclonal anti-phosphop38 MAPK (1:1000 dilution). Reconstituted enzyme assays were done as described s. The sources of protein kinases were: bovine heart PKA from Promega, rat brain PKC from Calbiochem, rat CaMKII from New England Biolabs, chicken gizzard MLCK prepared as described, and a p38 MAP kinase kit containing recombinant Xenopus p38-MAPK and its human substrate from Upstate Biotechnology. The catalytic domains of these protein kinases retain a high level of amino acid sequence identity across mammalian species, consistent with the lack of documented major differences across species for the in vitro catalytic activity of a given kinase.
FIG. 5. Effects of two compounds on LPS-stimulated INOS and IL-1β production in rat astrocyte cultures. Astrocyte cultures were incubated for 24 hr with control buffer (C), LPS (100 ng/ml) alone, or LPS in the presence of increasing concentrations (0.1, 0.3, 1, 3, 10 μM) of MW01-070C (panel A) or MW01-196A (panel B). The levels of iNOS, proIL-1β, and GFAP were determined by Western blot of cell lysates.
FIG. 6. Effects of MW01-070C on astrocytes treated with various activating stimuli, and analysis of multiple activation responses. Astrocyte cultures were stimulated for 12 hr with Aβ (10 μM), S100B (0.5 μM), or LPS (100 ng/ml) in the absence (−) or presence (+) of MW01-070C (10 μM). […]

death associated protein kinase (DAPK), sequence (P53355 whole entry, species assumed): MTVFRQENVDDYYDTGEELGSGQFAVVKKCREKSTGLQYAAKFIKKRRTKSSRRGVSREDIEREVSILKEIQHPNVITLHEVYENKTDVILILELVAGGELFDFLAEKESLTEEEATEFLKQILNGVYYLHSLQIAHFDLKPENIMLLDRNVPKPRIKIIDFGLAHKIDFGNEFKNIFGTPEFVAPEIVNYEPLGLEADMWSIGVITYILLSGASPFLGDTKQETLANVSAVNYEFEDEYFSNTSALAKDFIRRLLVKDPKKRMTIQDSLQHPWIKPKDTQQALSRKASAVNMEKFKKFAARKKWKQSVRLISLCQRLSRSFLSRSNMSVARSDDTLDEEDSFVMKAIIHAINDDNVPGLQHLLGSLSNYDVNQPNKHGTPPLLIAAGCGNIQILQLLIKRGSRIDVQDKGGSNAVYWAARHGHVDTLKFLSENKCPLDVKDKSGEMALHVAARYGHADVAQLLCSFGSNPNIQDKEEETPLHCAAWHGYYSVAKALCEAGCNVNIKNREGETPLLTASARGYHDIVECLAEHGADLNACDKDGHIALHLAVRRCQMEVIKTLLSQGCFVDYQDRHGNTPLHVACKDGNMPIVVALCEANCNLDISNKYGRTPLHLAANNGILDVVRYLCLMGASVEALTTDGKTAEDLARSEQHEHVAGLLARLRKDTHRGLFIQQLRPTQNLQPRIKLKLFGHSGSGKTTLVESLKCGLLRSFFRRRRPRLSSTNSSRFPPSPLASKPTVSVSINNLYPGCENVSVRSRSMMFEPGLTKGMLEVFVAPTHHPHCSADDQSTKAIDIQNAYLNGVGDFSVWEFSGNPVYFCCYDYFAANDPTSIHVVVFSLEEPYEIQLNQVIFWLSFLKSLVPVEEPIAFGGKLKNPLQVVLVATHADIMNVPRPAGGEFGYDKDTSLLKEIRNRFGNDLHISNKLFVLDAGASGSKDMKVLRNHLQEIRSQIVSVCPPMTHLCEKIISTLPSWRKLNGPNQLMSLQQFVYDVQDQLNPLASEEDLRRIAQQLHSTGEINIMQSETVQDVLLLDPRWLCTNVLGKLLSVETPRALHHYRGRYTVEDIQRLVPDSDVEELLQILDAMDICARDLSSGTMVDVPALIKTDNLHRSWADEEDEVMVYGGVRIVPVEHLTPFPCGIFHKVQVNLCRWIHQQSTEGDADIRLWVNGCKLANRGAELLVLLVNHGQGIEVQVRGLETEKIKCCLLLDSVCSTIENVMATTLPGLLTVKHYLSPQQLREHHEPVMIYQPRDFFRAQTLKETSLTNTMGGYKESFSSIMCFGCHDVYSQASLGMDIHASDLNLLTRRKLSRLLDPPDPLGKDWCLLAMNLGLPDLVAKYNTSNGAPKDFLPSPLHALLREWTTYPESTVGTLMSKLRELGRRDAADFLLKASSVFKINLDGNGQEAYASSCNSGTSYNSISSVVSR
T1 sequence (P11275 1-325 limits assumed): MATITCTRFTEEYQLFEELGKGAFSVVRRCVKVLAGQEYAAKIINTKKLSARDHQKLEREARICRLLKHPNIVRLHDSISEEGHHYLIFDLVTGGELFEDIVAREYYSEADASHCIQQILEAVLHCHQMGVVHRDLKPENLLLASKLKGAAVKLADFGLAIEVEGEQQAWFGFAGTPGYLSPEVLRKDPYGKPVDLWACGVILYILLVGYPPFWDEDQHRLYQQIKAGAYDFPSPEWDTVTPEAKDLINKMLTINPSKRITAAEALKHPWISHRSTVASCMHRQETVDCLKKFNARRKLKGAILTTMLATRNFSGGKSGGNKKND
T2 sequence (P11799 935-1906): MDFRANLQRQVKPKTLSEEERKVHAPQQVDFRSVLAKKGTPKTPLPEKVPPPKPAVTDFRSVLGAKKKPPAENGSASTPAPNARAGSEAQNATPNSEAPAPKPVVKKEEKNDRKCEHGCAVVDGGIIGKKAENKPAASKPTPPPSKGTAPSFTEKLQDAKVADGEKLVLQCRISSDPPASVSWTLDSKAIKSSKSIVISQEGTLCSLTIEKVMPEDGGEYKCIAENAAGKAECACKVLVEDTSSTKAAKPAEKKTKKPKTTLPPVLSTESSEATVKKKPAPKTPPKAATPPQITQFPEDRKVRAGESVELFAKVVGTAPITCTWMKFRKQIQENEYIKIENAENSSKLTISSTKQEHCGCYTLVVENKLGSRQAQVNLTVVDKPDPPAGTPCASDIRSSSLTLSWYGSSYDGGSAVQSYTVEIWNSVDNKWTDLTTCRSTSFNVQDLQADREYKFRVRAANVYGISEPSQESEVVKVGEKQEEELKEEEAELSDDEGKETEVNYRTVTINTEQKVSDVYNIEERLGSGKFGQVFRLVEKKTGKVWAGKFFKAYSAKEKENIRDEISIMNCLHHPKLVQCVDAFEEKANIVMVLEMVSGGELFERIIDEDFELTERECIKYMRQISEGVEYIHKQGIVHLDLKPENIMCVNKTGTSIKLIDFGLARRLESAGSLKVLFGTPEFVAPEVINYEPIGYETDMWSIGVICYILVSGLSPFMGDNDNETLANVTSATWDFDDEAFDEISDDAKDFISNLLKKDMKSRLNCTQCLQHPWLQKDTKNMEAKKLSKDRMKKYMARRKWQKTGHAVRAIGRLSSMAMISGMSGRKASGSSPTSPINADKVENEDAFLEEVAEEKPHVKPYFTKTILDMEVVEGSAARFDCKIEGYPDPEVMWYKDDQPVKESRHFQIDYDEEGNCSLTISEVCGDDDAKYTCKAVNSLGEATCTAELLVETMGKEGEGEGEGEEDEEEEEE

In the case of `C[S+]([O-])c1ccc(-c2nc(-c3ccncc3)c(-c3ccc(F)cc3)[nH]2)cc1` (centres unmarked) [Compound 7, SB203580, reference compound], the “inhibition of NO accumulation by activated glia” value (“inhibition of NO accumulation” below) [1] is reported as “less effective”.

For `N#CC(=C(/N)Sc1ccccc1N)/C(C#N)=C(\N)Sc1ccccc1N` [Compound 9, U0126, reference compound], the “inhibition of NO accumulation” value [1] was “less effective”.

For `O=C(CCCCCCCCCCN1CCN(c2ncccn2)CC1)N1CCN(c2ncccn2)CC1` [MW01-024Z], the “inhibition of NO accumulation” value [1] was “does not have any greater cellular activity than commercially available drugs and inhibitors”.

In the case of `N=c1cc2c(nn1CCCCC(=O)N1CCN(c3ncccn3)CC1)-c1ccccc1CC2` [MW01-160Z], the “inhibition of NO accumulation” value [1] is reported as “no more active than inhibitors of the NFκB pathway (PDTC)”.

In the case of `Cc1cc(NC(=O)CCCCCCCCCCn2nc3c(cc2=N)CCc2ccccc2-3)nnc1-c1ccccc1` [MW01-008B], the IC50 [2] is reported as 50 to 100 µM, the IC50 [3] is reported as < 20 µM and the IC50 [4] is reported as 50 to 100 µM.

`Cc1cc(=N)n(CCCCCCCCCCC(=O)Nc2ccc(-c3ccccc3)nn2)nc1-c1ccccc1` [MW01-103B] was tested, and the IC50 [2] was > 100 µM, the IC50 [3] was 20 to 50 µM and the IC50 [4] was 50 to 100 µM.

In the case of `O=C(CCCCCCCCCNc1ccc(-c2ccccc2)nn1)Nc1ccc(-c2ccccc2)nn1` [MW01-038B], the IC50 [3] is reported as > 100 µM and the IC50 [4] is reported as > 100 µM.

`Cc1ccn(CCCCCCCCCCC(=O)N2CCN(c3ncccn3)CC2)c(=N)c1` [MW01-196-AS] was tested, and the IL-1β production [5] was “does not show dose dependent inhibition”, the iNOS production [5] was “does not show dose dependent inhibition” and the “inhibition of NO accumulation” value [1] was “little activity”.

With `COc1cccc(-c2cc(=O)c3ccccc3o2)c1N` [Compound 8, PD98059, reference compound] the “inhibition of NO accumulation” value [1] was “less effective”.

In the case of `N=c1cc2c(nn1CCCCCCCCCCC(=O)Nc1nnc(-c3ccccc3)c3ccccc13)-c1ccccc1CC2` [MW01-119Z], the “inhibition of NO accumulation” value [1] is reported as “better efficacy than established anti-inflammatory compounds like SB203580”.

In the case of `Cc1ccc(=N)n(CCCCCCCCCCC(=O)Nc2ccc(-c3ccccc3)nn2)n1` [MW01-031Z], the IC50 [2] is reported as > 100 µM, the IC50 [3] is reported as < 20 µM and the IC50 [4] is reported as > 100 µM.

`N=c1cc2c(nn1CCCCCCCC(=O)N1CCN(c3ncccn3)CC1)-c1ccccc1CC2` [MW01-051Z] was tested, and the “inhibition of NO accumulation” value [1] was “significant NO inhibition activity”.

`Cc1ccc(NC(=O)CCCCCCCCCCn2nc3c(cc2=N)CCc2ccccc2-3)nn1` [MW01-020B] was tested, and the IC50 [2] was > 100 µM, the IC50 [3] was > 100 µM and the IC50 [4] was > 100 µM.

In the case of `N=c1ccc(-c2ccccc2)nn1CCCCCCCC(=O)Nc1ccc(-c2ccccc2)nn1` [MW01-086B], the IC50 [3] is reported as > 100 µM and the IC50 [4] is reported as > 100 µM.

`N=c1cc2c(nn1CCCCCCCC(=O)Nc1ccc(-c3ccccc3)nn1)-c1ccccc1CC2` [MW01-097B] was tested, and the IC50 [2] was > 100 µM, the IC50 [3] was 20 to 50 µM and the IC50 [4] was > 100 µM.
